# Laboratory results taken from patent US12390470B2, “1-methylxanthine-based bioactive composition and method of use thereof” (Ingenious Ingredients, LP, priority 2021, dated 2025).
# Read-outs that look alike come from different tables or passages of the source.
# Tests used:
# kidneys of Wistar rats = details: cited from earlier work
# participants [1] = test: Respiratory quotient, placebo-controlled crossover; format: in vivo, human
# Description: All supplements were orally ingested with 8 fluid ounces of cold tap water. The order of administration for all interventions was randomized using a random allocation software to ensure randomization and to avoid order effects. After ingestion, participants completed all assessments in an identical fashion 30, 60, 90, 120, and 180 minutes after ingestion of their assigned supplement. All study visits took place between 0600-1000 hours. At least 72 hours of rest will take place between each condition.
# The lower the RQ, the more fat that is being oxidized for body energy needs. The closer to 1.0 the more carbohydrate is being burned for energy needs. If numbers are lower more fat is being oxidized.
# participants [2] = test: Resting heart rate, crossover vs caffeine; format: in vivo, human
# Source text: (§1) All supplements were orally ingested with 8 fluid ounces of cold tap water.
# participants [3] = test: Systolic blood pressure, crossover vs caffeine; format: in vivo, human
# Source text: as §1
# participants [4] = test: Diastolic blood pressure, crossover vs caffeine; format: in vivo, human
# Description: All supplements were orally ingested with 8 fluid ounces of cold tap water. Resting Heart Rate, Systolic and Diastolic Blood Pressure was measured at baseline, 30, 60, 90, 120 and 180 minutes after ingestion.
# participants [5] = test: Anxiety by Visual Analog Scale; format: in vivo, human
# Description: All supplements were orally ingested with 8 fluid ounces of cold tap water. Anxiety was measured by Visual Analog Scale (VAS) at baseline, 30, 60, 90, 120 and 180 minutes after ingestion.
# [6] = Person one, time 0, 200 mg oral
# [7] = Person two, time 0, 200 mg oral
smiles,measurement,setting,value
Cn1c(=O)[nH]c(=O)c2[nH]cnc21 [3-methylxanthine],serum urea,"kidneys of Wistar rats; 100 mg kg^−1, after 16 days",Elevated values of serum urea were found
same,Tubular necrosis,"kidneys of Wistar rats; 100 mg kg^−1 per day oral, after 16 days",Tubular necrosis was noticed
same,serum urea,"kidneys of Wistar rats; 200 mg kg^−1, after 1 day",Elevated values of serum urea were found
same,serum creatinine,"kidneys of Wistar rats; 200 mg kg^−1, after 8 days",Elevated values of serum creatinine were detected
same,Tubular necrosis,"kidneys of Wistar rats; 200 mg kg^−1 per day oral, after 8 days",Tubular necrosis was noticed
same,overall renal outcome,"kidneys of Wistar rats; 50-200 mg per kg per day, 1-16 days",dose- and time-related renal failure
"Cn1c(=O)c2c(ncn2C)n(C)c1=O [caffeine, reference compound]",Respiratory Quotient MEAN (30-180),participants [1]; Average,0.701
same,Respiratory Quotient MEAN (30-180),participants [1]; Person one,0.704
same,Respiratory Quotient,"participants [1]; Person one, 30 min after ingestion",0.70
same,Respiratory Quotient,"participants [1]; Person one, 60 min",0.65
same,Respiratory Quotient,"participants [1]; Person one, 90 min",0.70
same,Respiratory Quotient,"participants [1]; Person one, 120 min",0.74
same,Respiratory Quotient,"participants [1]; Person one, 180 min",0.73
same,Respiratory Quotient,participants [1]; [6],0.68
same,Respiratory Quotient MEAN (30-180),participants [1]; Person two,0.698
same,Respiratory Quotient,"participants [1]; Person two, 30 min",0.70
same,Respiratory Quotient,"participants [1]; Person two, 60 min",0.71
same,Respiratory Quotient,"participants [1]; Person two, 90 min",0.71
same,Respiratory Quotient,"participants [1]; Person two, 120 min",0.71
same,Respiratory Quotient,"participants [1]; Person two, 180 min",0.66
same,Respiratory Quotient,participants [1]; [7],0.76
same,Resting Heart Rate Mean Δ from 0,"participants [2]; Average, listed as CA",10%
same,Resting Heart Rate Mean Δ from 0,participants [2]; Person one,+6.2 bpm
same,Resting Heart Rate,"participants [2]; Person one, 30 min",64 bpm
same,Resting Heart Rate,"participants [2]; Person one, 60 min",56 bpm
same,Resting Heart Rate,"participants [2]; Person one, 90 min",51 bpm
same,Resting Heart Rate,"participants [2]; Person one, 120 min",61 bpm
same,Resting Heart Rate,"participants [2]; Person one, 180 min",44 bpm
same,Resting Heart Rate,participants [2]; [6],49 bpm
same,Resting Heart Rate Mean Δ from 0,participants [2]; Person two,+4.6 bpm
same,Resting Heart Rate,"participants [2]; Person two, 30 min",65 bpm
same,Resting Heart Rate,"participants [2]; Person two, 60 min",62 bpm
same,Resting Heart Rate,"participants [2]; Person two, 90 min",62 bpm
same,Resting Heart Rate,"participants [2]; Person two, 120 min",64 bpm
same,Resting Heart Rate,"participants [2]; Person two, 180 min",69 bpm
same,Resting Heart Rate,participants [2]; [7],59 bpm
same,Systolic Blood Pressure MEAN (30-180),participants [3]; Person one,130.0 mm Hg
same,Systolic Blood Pressure MEAN (30-180),participants [3]; Person two,119.6 mm Hg
same,Diastolic Blood Pressure MEAN (30-180),participants [4]; Average,80.2 mm Hg
same,Diastolic Blood Pressure Mean Δ from 0,"participants [4]; Average, listed as CA",20.3%
same,Diastolic Blood Pressure MEAN (30-180),participants [4]; Person one,78.6 mm Hg
same,Diastolic Blood Pressure Mean Δ from 0,participants [4]; Person one,+18.6 mm Hg
same,Diastolic Blood Pressure,"participants [4]; Person one, 30 min",77 mm Hg
same,Diastolic Blood Pressure,"participants [4]; Person one, 60 min",80 mm Hg
same,Diastolic Blood Pressure,"participants [4]; Person one, 90 min",83 mm Hg
same,Diastolic Blood Pressure,"participants [4]; Person one, 120 min",77 mm Hg
same,Diastolic Blood Pressure,"participants [4]; Person one, 180 min",76 mm Hg
same,Diastolic Blood Pressure,participants [4]; [6],60 mm Hg
same,Diastolic Blood Pressure MEAN (30-180),participants [4]; Person two,81.8 mm Hg
same,Diastolic Blood Pressure Mean Δ from 0,participants [4]; Person two,+8.8 mm Hg
same,Diastolic Blood Pressure,"participants [4]; Person two, 30 min",77 mm Hg
same,Diastolic Blood Pressure,"participants [4]; Person two, 60 min",96 mm Hg
same,Diastolic Blood Pressure,"participants [4]; Person two, 90 min",84 mm Hg
same,Diastolic Blood Pressure,"participants [4]; Person two, 120 min",75 mm Hg
same,Diastolic Blood Pressure,"participants [4]; Person two, 180 min",77 mm Hg
same,Diastolic Blood Pressure,participants [4]; [7],73 mm Hg
same,Anxiety (VAS) MEAN (30-180),participants [5]; Average,74.4
same,Anxiety (VAS) Mean Δ from 0,"participants [5]; Average, listed as CA",65%
same,Anxiety (VAS) MEAN (30-180),participants [5]; Person one,74.6
same,Anxiety (VAS) Mean Δ from 0,participants [5]; Person one,+44.6
same,Anxiety (Visual Analog Scale),"participants [5]; Person one, 30 min",61
same,Anxiety (Visual Analog Scale),"participants [5]; Person one, 60 min",80
same,Anxiety (Visual Analog Scale),"participants [5]; Person one, 90 min",80
same,Anxiety (Visual Analog Scale),"participants [5]; Person one, 120 min",71
same,Anxiety (Visual Analog Scale),"participants [5]; Person one, 180 min",81
same,Anxiety (Visual Analog Scale),participants [5]; [6],30
same,Anxiety (VAS) MEAN (30-180),participants [5]; Person two,74.2
same,Anxiety (VAS) Mean Δ from 0,participants [5]; Person two,+14.2
same,Anxiety (Visual Analog Scale),"participants [5]; Person two, 30 min",70
same,Anxiety (Visual Analog Scale),"participants [5]; Person two, 60 min",75
same,Anxiety (Visual Analog Scale),"participants [5]; Person two, 90 min",76
same,Anxiety (Visual Analog Scale),"participants [5]; Person two, 120 min",75
same,Anxiety (Visual Analog Scale),"participants [5]; Person two, 180 min",75
same,Anxiety (Visual Analog Scale),participants [5]; [7],60
